Columns and labels:
A549 lung cancer cells = assay: Tumorsphere formation assay, A549; format: cell-based
Experimental: (§1) One of the gold standard techniques for the study and identification of CSCs is the sphere formation assay, an in vitro culture system that enriches for CSCs. Under these anchorage-independent culture conditions, CSCs preferentially form the so-called tumorspheres, whereas more differentiated cells die rapidly.
(§2) TUMORSPHERE FORMATION ASSAY: A single cell suspension was prepared using enzymatic (1× Trypsin-EDTA, T3924, Sigma Aldrich), and manual disaggregation (25 gauge needle). […] After 5 days of culture in a humidified incubator at 37° C., tumorspheres bigger than 50 μm were counted using an eye piece graticule.

MCF7 cells [1] = assay: Extracellular flux analysis (ECAR and OCR, XF96); format: cell-based, Human
Experimental: Inhibition of mitochondrial fission by m-DIVI-1 or a derivative thereof also blocks the normal functioning of mitochondrial metabolism in CSCs. Indeed, it has been shown that a DRP1 mutant that inhibits mitochondrial fission increases glucose uptake and lactate production, and decreases ATP production. […] The extracellular acidification rate (ECAR) and the oxygen consumption rate (OCR) were measured using an XF96 Extracellular Flux Analyser, and FIGS. 5A, 5B, and 6A-6C show the data. Basal glycolysis, glycolytic capacity and glycolytic reserve were calculated after addition of glucose, oligomycin and 2-deoxyglucose (2DG) into the media. […] Thus, to measure basal respiration, ATP production, maximal respiration and spare respiratory capacity, oxygen consumption was also calculated after addition of oligomycin, FCCP and antimycin/rotenone into glucose-containing media. […] The OCR versus ECAR graph was also plotted to have an indication of the metabolic state of the cell. […] Thus, mDIVI-1-induced inhibition of mitochondrial fission functionally targets oxidative phosphorylation and also the glycolytic function of MCF7 cells, transforming them into cells with lower mitochondrial energetic needs.
(§3) EXTRACELLULAR FLUX […] AND BRADFORD ASSAY: Extracellular acidification rate (ECAR) and oxygen consumption rate (OCR) were measured in a XF96 Extracellular Flux Analyzer (Seahorse Biosciences). Briefly, 1×10^4 MCF7 cells per well were seeded in XF96 plates and incubated with complete medium. When cells were attached, mDIVI-1 and vehicle treatments were added. Six replicates were run for each condition. After 48 hours, un-buffered DMEM XF medium supplemented with 2 mM glutamine (pH 7.4) was added to the cells, and placed in a 37° C. CO2-free incubator for 1 hour. Ten mM glucose, 1 μM oligomycin and 100 mM 2-deoxyglucose (2-DG) were injected into the media at different time points and ECAR was measured. Likewise, ECAR and OCR were quantified using un-buffered DMEM XF medium supplemented with 2 mM glutamine, 2 mM sodium pyruvate and 10 mM glucose. One μM oligomycin, 0.9 μM FCCP and 1 μM rotenone and antimycin A were injected into the media at different time points and OCR and ECAR were measured. Cells were finally lysed with 0.1 M NaOH and protein lysate was subsequently stained with Quick Start™ Bradford 1× Dye Reagent (500-0205, BioRad) to normalise results. All parameters were calculated according to manufacturer.

MCF7 cells [2] = assay: Bradford assay (protein content as indicator of cell viability); format: cell-based, Human; details: 2 days
Experimental: (§4) The inventors sought to evaluate whether mDIVI-1-induced inhibition of DRP1 has repercussion on the viability of MCF7 cells. […] Similar results were obtained using the Bradford assay, which measures protein content, as an indicator of cell viability.
as §3, with “Cells were finally lysed with 0.1 M NaOH and protein lysate was subsequently stained with Quick Start™ Bradford 1× Dye Reagent (500-0205, BioRad) to normalise results.” left out

[3] = PrestoBlue viability assay; format: cell-based, Human; details: human, MCF7 breast cancer cells, read-out: reduction of MCF7 cell viability
Experimental: as §4
(§5) CELL CULTURE: Human MCF7 breast cancer cells were purchased from ATCC and maintained in complete media: DMEM (D6546, Sigma) supplemented with 10% fetal bovine serum (F7524, Sigma), 100 units/ml of penicillin, 100 μg/ml, streptomycin (P0781, Sigma) and 1% Glutamax (#35050087, Life Technologies). For all experiments, cells were incubated in a 5% CO2 atmosphere at 37° C.
(§6) PRESTOBLUE VIABILITY ASSAY: Cell viability was measured using the resazurin-based PrestoBlue reagent (A-13261, ThermoFisher Scientific). Briefly, 5×10^3 MCF7 cells were seeded into 96-well black plates. When cells were attached mDIVI-1 or vehicle were added to the cells. After 2 or 5 days, PrestoBlue reagent was added to the cells and incubated for 2 hours. Plates were finally read using a FluoStar Omega plate reader (BMG Labtech) at an excitation wavelength of 544 and an emission wavelength of 590 nm. Background measurements were subtracted from all values.

MCF7 cells [4] = assay: PrestoBlue viability assay; format: cell-based, Human; details: 10 μM, 48 hours
Experimental: as §4, §5, §6

MCF7 breast cancer cells = assay: Tumorsphere formation assay, MCF7; format: cell-based, Human; details: five days, vs vehicle
Experimental: as §1, §2

E-cadherin = assay: Western blotting (immunoblot); format: cell-based, Human; details: MCF7 cells after mDIVI-1 treatment
Experimental: Breast cancer stem cells can exist in distinct states, an mesenchymal-like state and an epithelial-like state, being the first one characterized for its expression of CD24^−/CD44^+, with an mesenchymal-like gene-expression profile and primarily quiescent.
At the end of the treatment, cells in suspension were spun down and lysed and attached cells were directly lysed in RIPA lysis buffer (R0278, Sigma) containing proteinase inhibitors (05 892 970 001, Roche) and kept at 4° C. for 20 minutes with rotation. Lysates were cleared by centrifugation for 10 minutes at 10,000×g and supernatants were collected. Equal amounts of protein lysate, as determined by using the BCA protein assay kit (23225, Pierce) were diluted in SDS sample buffer and dry-boiled for 5 minutes before being separated by SDS-PAGE using 4-20% gels (456-1094, Biorad). Samples were then blotted onto nitrocellulose membranes (170-4159, Biorad), blocked in 5% milk in TBS-Tween 20 (P9416, Sigma) for 1 hour and probed with antibodies against E-cadherin (ab8995, Abcam) or β-actin (a2228, Sigma). Bound antibodies were detected using a horseradish peroxidase-conjugated secondary antibody (ab6789 and ab6721, Abcam) and signal was obtained using Supersignal West Pico chemiluminiscent substrate (34087, ThermoScientific). Pictures were taken in a ChemiDoc XRS with Image Lab Software (BioRad).

For `COc1cc(-n2c(S)nc3ccccc3c2=O)c(Cl)cc1Cl` [mDIVI-1, 3-(2,4-Dichloro-5-methoxyphenyl)-2-sulfanyl-4(3H)-quinazolinone], the “decrease of tumorsphere forming capacity” value (A549 lung cancer cells; A549, 10 μM) was > 15%, the “decrease of tumorsphere forming capacity” value (A549 lung cancer cells; A549, 50 μM) was > 80% and the “basal glycolysis (ECAR)” value (MCF7 cells [1]; 48 hours) was “did not have a significant effect”. For the same compound, the “glycolytic capacity (ECAR)” value (MCF7 cells [1]; 48 hours) was “reduced”, the “glycolytic reserve (ECAR)” value (MCF7 cells [1]; 48 hours) was “reduced” and the “oxygen consumption linked to ATP production” value (MCF7 cells [1]; 48 hours) was “significantly reduced”. The “oxygen consumption linked to basal respiration” value (MCF7 cells [1]; 48 hours) was “significantly reduced”, the spare respiratory capacity (MCF7 cells [1]; 48 hours, all mDIVI-1 concentrations) was “slightly increased” and the “oxygen consumption linked to maximal respiration” value (MCF7 cells [1]; 48 hours, to a lesser extent, at higher concentrations) was “significantly reduced”. The OCR/ECAR ratio (MCF7 cells [1]; compared to vehicle) was “decreased dose-dependently”, the MCF7 protein content (MCF7 cells [2]; 20 μM) was “significantly reduced” and the MCF7 protein content (MCF7 cells [2]; 50 μM) was “significantly reduced”. For the same compound, the cytotoxicity at 5 days, 10 μM ([3]; 10 μM, five days) was 20%, the cytotoxicity at 48 h, 50 μM ([3]; 50 μM, 48 hours) was 20% and the cytotoxicity at 5 days, 50 μM ([3]; 50 μM, five days) was > 65%. The cytotoxicity at 48 h, 100 μM ([3]; 100 μM, 48 hours) was 20%, the cytotoxicity at 5 days, 100 μM ([3]; 100 μM, five days) was 85% and the “viability of MCF7 cells” value (MCF7 cells [4]) was “did not decrease”. For the same compound, the “decrease of tumorsphere number” value (MCF7 breast cancer cells; MCF7, 10 μM) was 50%, the “decrease of tumorsphere number” value (MCF7 breast cancer cells; MCF7, 50 μM) was 80% and the “decrease of tumorsphere number” value (MCF7 breast cancer cells; MCF7, 100 μM) was 95%. For the same compound, the “expression of E-cadherin” value (E-cadherin) was “reduction”.

Source: patent publication US11559527B2 (priority 2017, dated 2023)
